Source: the supplement of paper PMC10307832

Legend:
BAY61-3606 = compound: COC1=C(C=C(C=C1)C2=CC3=NC=CN3C(=N2)NC4=C(C=CC=N4)C(=O)N)OC [BAY61-3606]; experiment: relative viability (nuclei count vs DMSO), 5 days (fraction); higher = more cells survive
Outline: (§1)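 Lung cancer cell lines in 1536-well plates were kept overnight at 37 °C, then pinned with five library-drug doses (not always all listed) spaced by √10 on vehicle-anchored plates. After 5 days without medium change, cells were fixed, permeabilised and Hoechst-stained in one step, imaged at 4×, and nuclei were counted with MetaXpress. Viability is treated-well nuclei divided by vehicle-well nuclei, taken as the median over plates. Plates passed only with control CV below 25% and at least one doubling.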

Doxorubicin = compound: COc1cccc2c1C(=O)c1c(O)c3c(c(O)c1C2=O)C[C@@](O)(C(=O)CO)C[C@@H]3O[C@H]1C[C@H](N)[C@H](O)[C@H](C)O1 [Doxorubicin]; experiment: as above
Outline: as §1

Row | Cell Line | relative viability (BAY61-3606; 0.02 µM) | relative viability (BAY61-3606; 0.06325 µM) | relative viability (BAY61-3606; 0.2 µM) | relative viability (BAY61-3606; 0.6325 µM) | relative viability (BAY61-3606; 2 µM) | relative viability (Doxorubicin; 0.001 µM) | relative viability (Doxorubicin; 0.003162 µM) | relative viability (Doxorubicin; 0.01 µM) | relative viability (Doxorubicin; 0.03162 µM) | relative viability (Doxorubicin; 0.1 µM)
1 | NCI-H441 | 1.12 | 1.15 | 1.01 | 1.15 | 0.682 | 0.687 | 0.957 | 0.677 | 0.359 | 0.326
2 | NCI-H460 | 1.04 | 1.03 | 0.959 | 0.998 | 0.891 | 0.957 | 0.96 | 0.859 | 0.468 | 0.141
3 | NCI-H520 | 1.07 | 1.06 | 1.07 | 1.12 | 1.05 | 0.901 | 1.03 | 0.939 | 0.799 | 0.822
4 | NCI-H522 | 0.961 | 0.907 | 0.953 | 0.954 | 0.933 | 0.741 | 0.938 | 0.988 | 0.838 | 0.894
5 | NCI-H596 | 0.96 | 0.96 | 1.07 | 1.15 | 0.86 | 0.97 | 1.16 | 1.08 | 0.853 | 0.948
6 | NCI-H647 | 1.15 | 0.897 | 0.946 | 0.979 | 0.616 | 0.953 | 1.07 | 0.987 | 0.495 | 0.201
7 | NCI-H650 | 1 | 0.802 | 0.818 | 0.942 | 0.745 | 1 | 0.86 | 0.92 | 0.83 | 0.741
8 | NCI-H661 | 1.02 | 0.993 | 0.991 | 0.963 | 0.976 | 1.01 | 1.06 | 0.957 | 0.853 | 0.634
9 | NCI-H727 | 1 | 0.923 | 0.983 | 1.01 | 0.901 | 0.874 | 0.971 | 0.76 | 0.928 | 0.812
10 | NCI-H838 | 1.03 | 0.942 | 0.999 | 0.934 | 0.668 | 1 | 0.988 | 0.964 | 0.807 | 0.552
11 | NCI-H1299 | 1.02 | 1.01 | 1.02 | 1.04 | 0.989 | 1.02 | 1.05 | 0.984 | 1.02 | 0.943
12 | NCI-H1355 | 1.08 | 0.916 | 0.937 | 0.961 | 0.882 | 0.888 | 1.04 | 1.01 | 0.989 | 1.01
13 | NCI-H1395 | 1.02 | 0.811 | 0.826 | 0.895 | 0.811 | 0.919 | 1.05 | 1.02 | 0.891 | 0.629
14 | NCI-H1437 | 1.03 | 1.03 | 0.978 | 1 | 0.941 | 0.991 | 1.01 | 0.894 | 0.718 | 0.409
15 | NCI-H1563 | 1.16 | 0.993 | 1.01 | 0.994 | 0.814 | 0.939 | 0.939 | 0.747 | 0.698 | 0.683
16 | NCI-H1623 | 0.892 | 0.891 | 0.911 | 0.953 | 0.927 | 0.934 | 0.968 | 0.965 | 0.947 | 0.992
17 | NCI-H1648 | 0.832 | 0.89 | 1.16 | 0.74 | 0.804 | 0.898 | 1.07 | 0.719 | 0.864 | 0.882

Row | Cell Line | relative viability (BAY61-3606; 0.02 µM) | relative viability (BAY61-3606; 0.06325 µM) | relative viability (BAY61-3606; 0.2 µM) | relative viability (BAY61-3606; 0.6325 µM) | relative viability (BAY61-3606; 2 µM) | relative viability (Doxorubicin; 0.001 µM) | relative viability (Doxorubicin; 0.003162 µM) | relative viability (Doxorubicin; 0.01 µM) | relative viability (Doxorubicin; 0.03162 µM) | relative viability (Doxorubicin; 0.1 µM)
18 | NCI-H1650 | 1.06 | 0.883 | 0.964 | 1.11 | 0.527 | 0.823 | 0.809 | 0.481 | 0.255 | 0.159
19 | NCI-H1651 | 1.01 | 0.93 | 0.986 | 1.01 | 0.883 | 0.949 | 0.96 | 0.925 | 0.642 | 0.635
20 | NCI-H1666 | 1.14 | 0.996 | 0.958 | 1.04 | 1.01 | 0.902 | 0.996 | 0.814 | 0.548 | 0.525
21 | NCI-H1703 | 1.16 | 0.789 | 0.77 | 0.919 | 0.558 | 0.857 | 0.936 | 0.812 | 0.4 | 0.351
22 | NCI-H1734 | 1.04 | 0.979 | 0.746 | 0.935 | 0.602 | 0.923 | 1.11 | 0.876 | 0.669 | 0.608
23 | NCI-H1755 | 1.05 | 1 | 0.995 | 1.05 | 0.988 | 0.999 | 0.979 | 1 | 1.03 | 1.02
24 | NCI-H1792 | 0.982 | 0.853 | 1 | 0.885 | 1.03 | – | 0.885 | 0.964 | 0.903 | 0.747
25 | NCI-H1793 | 0.964 | 1.02 | 0.786 | 1.08 | 1.03 | – | 1.18 | 0.863 | 0.731 | 0.901
26 | NCI-H1915 | 0.993 | 0.996 | 0.826 | 1.01 | 0.786 | 0.955 | 1.03 | 0.966 | 1.03 | 1.01
27 | NCI-H1944 | 1.08 | 1 | 0.95 | 0.785 | 0.619 | 0.929 | 1.02 | 0.902 | 0.692 | 0.802
28 | NCI-H1975 | 0.958 | 0.964 | 0.913 | 0.874 | 0.668 | 1.02 | 0.985 | 0.951 | 0.778 | 0.518
29 | NCI-H1993 | 0.958 | 0.896 | 0.818 | 0.97 | 0.806 | 0.967 | 0.927 | 1.01 | 0.819 | 0.749
30 | NCI-H2009 | 1.06 | 1.03 | 0.997 | 0.989 | 0.894 | 0.99 | 1.01 | 0.94 | 0.843 | 0.504
31 | NCI-H2023 | 1.14 | 1.05 | 1 | 1.16 | 0.697 | 0.873 | 0.903 | 0.706 | 0.209 | 0.0985
32 | NCI-H2085 | 1.08 | 1.03 | 0.995 | 1.08 | 0.934 | 0.971 | 0.996 | 0.994 | 0.926 | 0.95
33 | NCI-H2087 | 0.996 | 1.15 | 1.18 | 1.11 | 0.961 | 0.819 | 1.15 | 1.01 | 0.78 | 0.636
34 | NCI-H2126 | 1.07 | 0.931 | 0.944 | 1.05 | 0.915 | 0.946 | 1 | 0.97 | 0.914 | 1.01
